Common to all, as to type: tissue-based
The species entered for assay [1] is Cavia porcellus. The assay is described as follows: Agonist activity at beta-adrenergic receptor in guinea pig tracheal tissue assessed as bronchodilator activity. Conditions: Trachea.
Assay [2] is filed under the species Cavia porcellus. Description: Agonist activity at beta-adrenergic receptor in guinea pig right atrial muscle assessed as rate of contraction of spontaneously beating atria. Conditions: Cardiac atrium.
The species entered for assay [3] is Cavia porcellus. Description: Selectivity ratio of ED25 for beta-adrenergic receptor in guinea pig right atrial muscle to ED50 for beta-adrenergic receptor in guinea pig tracheal tissue. Conditions: Cardiac atrium.
The species named for assay [4] is Cavia porcellus. The assay is described as follows: Intrinsic activity at beta-adrenergic receptor in guinea pig right atrial muscle assessed as rate of contraction of spontaneously beating atria relative to isoproterenol. Conditions: Cardiac atrium.
Assay [5] is filed under the species Cavia porcellus. Description: Agonist activity at beta-adrenergic receptor in guinea pig right atrial muscle assessed as rate of contraction of spontaneously beating atria at 1.7 x 10^-5 M. Conditions: Cardiac atrium.
The species named for assay [6] is Cavia porcellus. Description: Agonist activity at beta-adrenergic receptor in guinea pig right atrial muscle assessed as rate of contraction of spontaneously beating atria at 9.9 x 10^-5 M. Conditions: Cardiac atrium.

For `CC(C)NCC(O)c1ccc(O)c(O)c1` (stereo not given), the ED50 in assay [1] stood at 7.1 ×10⁻⁹ M. In addition, in assay [2], the ED25 was determined as 3.4 ×10⁻⁹ M.
With `CC(C)NCC(O)c1ccc(O)cc1` (stereo not given), the ED50 in assay [1] was found to be 1.1 ×10⁻⁷ M. Also, the Selectivity ratio in assay [3] is 0.7. Also, the ED25 in assay [2] is 7.7 ×10⁻⁸ M. Moreover, the Intrinsic activity in assay [4] stood at 0.8.
For `CC(C)(C)NCC(O)c1ccc(O)cn1` (stereo not given), the ED50 in assay [1] was 3.1 ×10⁻⁷ M. In addition, the Selectivity ratio in assay [3] is > 182. Further, in assay [2], the ED25 stood at 1.7 ×10⁻⁵ M. In assay [5], the Activity came out at 7%.
Turning to `Cc1nc(C(O)CNC(C)(C)C)ccc1O` (stereo not given), the ED50 in assay [1] stood at 2.8 ×10⁻⁷ M. Moreover, in assay [3], the Selectivity ratio was determined as 36. For the same molecule, the ED25 in assay [2] came out at 1 ×10⁻⁵ M. The Intrinsic activity in assay [4] came to 0.4.
`CC(C)(C)NCC(O)c1ccc(O)c(CO)n1` (stereo not given): the ED50 in assay [1] is 2.8 ×10⁻⁹ M. In addition, the Selectivity ratio in assay [3] came out at 43. For the same molecule, the ED25 in assay [2] came out at 1.2 ×10⁻⁷ M. The Intrinsic activity in assay [4] came to 0.8.
In the case of `CC(C)(C)NCC(O)c1ccc(O)c(CS(C)(=O)=O)n1` (stereo not given), the ED50 in assay [1] came out at 2.9 ×10⁻⁸ M. Besides, in assay [3], the Selectivity ratio is > 3410. In assay [2], the ED25 worked out at 9.9 ×10⁻⁵ M. In addition, in assay [6], the Activity came out at 13%.
Consider `CC(C)(C)NCC(O)c1ccc(O)c(CO)c1` (stereo not given), for which the ED50 in assay [1] is 1.1 ×10⁻⁸ M. Further, the Selectivity ratio in assay [3] was determined as 28. In addition, the ED25 in assay [2] stood at 3.1 ×10⁻⁷ M. Besides, the Intrinsic activity in assay [4] was determined as 0.7.
On to `CC(C)(C)NCC(O)c1ccc(O)c(CS(C)(=O)=O)c1` (stereo not given), for which the ED50 in assay [1] is 1.7 ×10⁻⁸ M. In addition, the Selectivity ratio in assay [3] came out at 1650. Also, in assay [2], the ED25 was found to be 2.8 ×10⁻⁵ M. In addition, the Intrinsic activity in assay [4] came to 0.3.

For the origin of these results see ChEMBL document CHEMBL3272046, “Adrenerigic agents. 7.1 Synthesis and beta-adrenergic agonist activity of several 2-pyridylethanolamines” (J Med Chem, 1977).
